Results as given in US9133163B2, “Dihydropyrazole GPR40 modulators” (Bristol-Myers Squibb Company, priority 2012, dated 2015).

Target: hGPR40 (Homo sapiens, UniProt O14842)
Assay: FDSS-based intracellular calcium assay
Assay type: cell-based
Design: 3xFLAG; expressed in transfected cells
Conditions: intracellular Ca2+ response, cells expressing GPR40
Method: FDSS-Based Intracellular Calcium Assay
Compounds are dissolved in DMSO and diluted to desired concentrations with assay buffer and added to the cells as 3× solution (20 μL per well). Run fluorescence/luminescence reader FDSS (Hamamatsu) to read intracellular Ca^2+ response.

Chain of hGPR40 (O14842 whole entry): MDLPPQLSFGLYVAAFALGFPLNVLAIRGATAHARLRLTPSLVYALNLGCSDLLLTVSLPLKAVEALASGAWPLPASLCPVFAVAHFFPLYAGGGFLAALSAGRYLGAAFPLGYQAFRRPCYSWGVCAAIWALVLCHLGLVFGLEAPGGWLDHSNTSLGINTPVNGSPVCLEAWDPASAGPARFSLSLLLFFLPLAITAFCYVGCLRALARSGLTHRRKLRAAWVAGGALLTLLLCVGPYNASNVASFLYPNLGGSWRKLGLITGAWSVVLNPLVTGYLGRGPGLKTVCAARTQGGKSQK

Row | EC50 [nM] | Compound
1 | 796 | Cc1cccc(F)c1N1CCC(Oc2ccc(N3N=C(C(F)(F)F)[C@@H](C)[C@@H]3CC(=O)O)cc2)CC1 [Example 42, 2-((4S,5S)-1-(4-((1-(2-Fluoro-6-methylphenyl)piperidin-4-yl)oxy)phenyl)-4-methyl-3-(trifluoromethyl)-4,5-dihydro-1H-pyrazol-5-yl)acetic acid]
2 | 1070 | Cc1ccc(C)c(N2CCC(Oc3ccc(N4N=C(C(F)(F)F)[C@@H](C)[C@@H]4CC(=O)O)cc3)CC2)c1 [Example 43, 2-((4S,5S)-1-(4-((1-(2,5-Dimethylphenyl)piperidin-4-yl)oxy)phenyl)-4-methyl-3-(trifluoromethyl)-4,5-dihydro-1H-pyrazol-5-yl)acetic acid]
3 | 1340 | Cc1cccc(C)c1N1CCC(Oc2ccc(N3N=C(C(F)(F)F)[C@@H](C)[C@@H]3CC(=O)O)cc2)CC1 [Example 44, 2-((4S,5S)-1-(4-((1-(2,6-Dimethylphenyl)piperidin-4-yl)oxy)phenyl)-4-methyl-3-(trifluoromethyl)-4,5-dihydro-1H-pyrazol-5-yl)acetic acid]
4 | 1520 | COc1ccnc(N2CCC(Oc3ccc(N4N=C(C(F)(F)F)[C@@H](C)[C@@H]4CC(=O)O)cc3)CC2)c1 [Example 45, 2-((4S,5S)-1-(4-((1-(4-Methoxypyridin-2-yl)piperidin-4-yl)oxy)phenyl)-4-methyl-3-(trifluoromethyl)-4,5-dihydro-1H-pyrazol-5-yl)acetic acid]
5 | 1700 | COc1ccccc1N1CCC(Oc2ccc(N3N=C(C(F)(F)F)[C@@H](C)[C@@H]3CC(=O)O)cc2)CC1 [Example 46, 2-((4S,5S)-1-(4-((1-(2-Methoxyphenyl)piperidin-4-yl)oxy)phenyl)-4-methyl-3-(trifluoromethyl)-4,5-dihydro-1H-pyrazol-5-yl)acetic acid]
6 | 1910 | COc1cc(N2CCC(Oc3ccc(N4N=C(C(F)(F)F)[C@@H](C)[C@@H]4CC(=O)O)cc3)CC2)ccn1 [Example 47, 2-((4S,5S)-1-(4-((1-(2-Methoxypyridin-4-yl)piperidin-4-yl)oxy)phenyl)-4-methyl-3-(trifluoromethyl)-4,5-dihydro-1H-pyrazol-5-yl)acetic acid]
7 | 2270 | C[C@@H]1C(C(F)(F)F)=NN(c2ccc(OC3CCN(c4cccc(F)c4)CC3)cc2)[C@H]1CC(=O)O [Example 48, 2-((4S,5S)-1-(4-((1-(3-Fluorophenyl)piperidin-4-yl)oxy)phenyl)-4-methyl-3-(trifluoromethyl)-4,5-dihydro-1H-pyrazol-5-yl)acetic acid]
8 | 2650 | C[C@@H]1C(C(F)(F)F)=NN(c2ccc(OC3CCN(c4ccc(F)cc4)CC3)cc2)[C@H]1CC(=O)O [Example 49, 2-((4S,5S)-1-(4-((1-(4-Fluorophenyl)piperidin-4-yl)oxy)phenyl)-4-methyl-3-(trifluoromethyl)-4,5-dihydro-1H-pyrazol-5-yl)acetic acid]
9 | 2840 | C[C@@H]1C(C(F)(F)F)=NN(c2ccc(OC3CCN(c4cccc(Cl)c4)CC3)cc2)[C@H]1CC(=O)O [Example 50, 2-((4S,5S)-1-(4-((1-(3-Chlorophenyl)piperidin-4-yl)oxy)phenyl)-4-methyl-3-(trifluoromethyl)-4,5-dihydro-1H-pyrazol-5-yl)acetic acid]
10 | 3060 | COc1cc(C)c(N2CCC(Oc3ccc(N4N=C(C(F)(F)F)[C@@H](C)[C@@H]4CC(=O)O)cc3)CC2)c(C)c1 [Example 51, 2-((4S,5S)-1-(4-((1-(4-Methoxy-2,6-dimethylphenyl)piperidin-4-yl)oxy)phenyl)-4-methyl-3-(trifluoromethyl)-4,5-dihydro-1H-pyrazol-5-yl)acetic acid]
11 | 3620 | COc1ccc(N2CCC(Oc3ccc(N4N=C(C(F)(F)F)[C@@H](C)[C@@H]4CC(=O)O)cc3)CC2)cc1F [Example 52, 2-((4S,5S)-1-(4-((1-(3-Fluoro-4-methoxyphenyl)piperidin-4-yl)oxy)phenyl)-4-methyl-3-(trifluoromethyl)-4,5-dihydro-1H-pyrazol-5-yl)acetic acid]
12 | 5900 | COc1cccc(F)c1N1CCC(Oc2ccc(N3N=C(C(F)(F)F)[C@@H](C)[C@@H]3CC(=O)O)cc2)CC1 [Example 54, 2-((4S,5S)-1-(4-((1-(2-Fluoro-6-methoxyphenyl)piperidin-4-yl)oxy)phenyl)-4-methyl-3-(trifluoromethyl)-4,5-dihydro-1H-pyrazol-5-yl)acetic acid]
13 | 6270 | C[C@@H]1C(C(F)(F)F)=NN(c2ccc(OC3CCN(c4ccc(Cl)cc4)CC3)cc2)[C@H]1CC(=O)O [Example 56, 2-((4S,5S)-1-(4-((1-(4-Chlorophenyl)piperidin-4-yl)oxy)phenyl)-4-methyl-3-(trifluoromethyl)-4,5-dihydro-1H-pyrazol-5-yl)acetic acid]
14 | 293 | C[C@@H]1C(C(F)(F)F)=NN(c2ccc(OC3CCN(c4ncccc4Cl)CC3)cc2)[C@H]1CC(=O)O [Example 58, 2-((4S,5S)-1-(4-((1-(3-Chloropyridin-2-yl)piperidin-4-yl)oxy)phenyl)-4-methyl-3-(trifluoromethyl)-4,5-dihydro-1H-pyrazol-5-yl)acetic acid]
15 | 361 | C[C@@H]1C(C(F)(F)F)=NN(c2ccc(OC3CCN(c4cc(F)ccc4Cl)CC3)cc2)[C@H]1CC(=O)O [Example 59, 2-((4S,5S)-1-(4-((1-(2-Chloro-5-fluorophenyl)piperidin-4-yl)oxy)phenyl)-4-methyl-3-(trifluoromethyl)-4,5-dihydro-1H-pyrazol-5-yl)acetic acid]
16 | 364 | Cc1ccc(Cl)c(N2CCC(Oc3ccc(N4N=C(C(F)(F)F)[C@@H](C)[C@@H]4CC(=O)O)cc3)CC2)c1 [Example 60, 2-((4S,5S)-1-(4-((1-(2-Chloro-5-methylphenyl)piperidin-4-yl)oxy)phenyl)-4-methyl-3-(trifluoromethyl)-4,5-dihydro-1H-pyrazol-5-yl)acetic acid]
17 | 366 | Cc1ccc(F)c(N2CCC(Oc3ccc(N4N=C(C(F)(F)F)[C@@H](C)[C@@H]4CC(=O)O)cc3)CC2)n1 [Example 61, 2-((4S,5S)-1-(4-((1-(3-Fluoro-6-methylpyridin-2-yl)piperidin-4-yl)oxy)phenyl)-4-methyl-3-(trifluoromethyl)-4,5-dihydro-1H-pyrazol-5-yl)acetic acid]
18 | 382 | C[C@@H]1C(C(F)(F)F)=NN(c2ccc(OC3CCN(c4ccc(F)cc4Cl)CC3)cc2)[C@H]1CC(=O)O [Example 62, 2-((4S,5S)-1-(4-((1-(2-Chloro-4-fluorophenyl)piperidin-4-yl)oxy)phenyl)-4-methyl-3-(trifluoromethyl)-4,5-dihydro-1H-pyrazol-5-yl)acetic acid]
19 | 398 | C[C@@H]1C(C(F)(F)F)=NN(c2ccc(OC3CCN(c4ccc(Cl)cc4F)CC3)cc2)[C@H]1CC(=O)O [Example 63, 2-((4S,5S)-1-(4-((1-(4-Chloro-2-fluorophenyl)piperidin-4-yl)oxy)phenyl)-4-methyl-3-(trifluoromethyl)-4,5-dihydro-1H-pyrazol-5-yl)acetic acid]
20 | 512 | C[C@@H]1C(C(F)(F)F)=NN(c2ccc(OC3CCN(c4cc(Cl)ccc4F)CC3)cc2)[C@H]1CC(=O)O [Example 64, 2-((4S,5S)-1-(4-((1-(5-Chloro-2-fluorophenyl)piperidin-4-yl)oxy)phenyl)-4-methyl-3-(trifluoromethyl)-4,5-dihydro-1H-pyrazol-5-yl)acetic acid]
21 | 600 | CC(C)c1ccc(F)c(N2CCC(Oc3ccc(N4N=C(C(F)(F)F)[C@@H](C)[C@@H]4CC(=O)O)cc3)CC2)c1 [Example 66, 2-((4S,5S)-1-(4-((1-(2-Fluoro-5-isopropylphenyl)piperidin-4-yl)oxy)phenyl)-4-methyl-3-(trifluoromethyl)-4,5-dihydro-1H-pyrazol-5-yl)acetic acid]
22 | 1930 | C[C@@H]1C(C(F)(F)F)=NN(c2ccc(OC3CCN(c4ccccc4)CC3)cc2)[C@H]1CC(=O)O [Example 72, 2-((4S,5S)-4-Methyl-1-(4-((1-phenylpiperidin-4-yl)oxy)phenyl)-3-(trifluoromethyl)-4,5-dihydro-1H-pyrazol-5-yl)acetic acid]
23 | 2120 | CC(C)c1cccc(N2CCC(Oc3ccc(N4N=C(C(F)(F)F)[C@@H](C)[C@@H]4CC(=O)O)cc3)CC2)c1 [Example 73, 2-((4S,5S)-1-(4-((1-(3-Isopropylphenyl)piperidin-4-yl)oxy)phenyl)-4-methyl-3-(trifluoromethyl)-4,5-dihydro-1H-pyrazol-5-yl)acetic acid]
24 | 2610 | C[C@@H]1C(C(F)(F)F)=NN(c2ccc(OC3CCN(c4ccccn4)CC3)cc2)[C@H]1CC(=O)O [Example 74, 2-((4S,5S)-4-Methyl-1-(4-((1-(pyridin-2-yl)piperidin-4-yl)oxy)phenyl)-3-(trifluoromethyl)-4,5-dihydro-1H-pyrazol-5-yl)acetic acid]
25 | 7680 | C[C@@H]1C(C(F)(F)F)=NN(c2ccc(OC3CCN(c4cccnc4)CC3)cc2)[C@H]1CC(=O)O [Example 75, 2-((4S,5S)-4-Methyl-1-(4-((1-(pyridin-3-yl)piperidin-4-yl)oxy)phenyl)-3-(trifluoromethyl)-4,5-dihydro-1H-pyrazol-5-yl)acetic acid]
26 | 649 | COc1ccc(Cl)c(N2CCC(Oc3ccc(N4N=C(C(F)(F)F)[C@@H](C)[C@@H]4CC(=O)O)cc3)CC2)n1 [Example 76, 2-((4S,5S)-1-(4-((1-(3-Chloro-6-methoxypyridin-2-yl)piperidin-4-yl)oxy)phenyl)-4-methyl-3-(trifluoromethyl)-4,5-dihydro-1H-pyrazol-5-yl)acetic acid]
27 | 1990 | COc1cc(Cl)cc(N2CCC(Oc3ccc(N4N=C(C(F)(F)F)[C@@H](C)[C@@H]4CC(=O)O)cc3)CC2)n1 [Example 78, 2-((4S,5S)-1-(4-((1-(4-Chloro-6-methoxypyridin-2-yl)piperidin-4-yl)oxy)phenyl)-4-methyl-3-(trifluoromethyl)-4,5-dihydro-1H-pyrazol-5-yl)acetic acid]
